Where two headings read alike, the source gives them in different places.
Legend:
[1] = GSH retention in solid composition exposed to hydrogen peroxide oxidation (Ellman colorimetric, 405 nm); settings: 0.1 mmol GSH, 1 ml hydrogen peroxide 1.0% w/v
Method: 0.1 mmol of reduced glutathione (96%) was premixed with 5 g of liquid sorbitol (96%, Roquette Corp) using magnetic stirring for 15 minutes at room temperature. Then, as described in Table 2, an amount of each food grade antioxidant were separately added for each test, followed by an additional 10 minutes of stirring. The mixture was then homogeneously dispersed in 100 g of powder sorbitol using mechanical high shear blending for 3 minutes. 1 ml of hydrogen peroxide solution 1.0% w/v was added to each test and a continue mixing for additional 1 minute. A control test with no antioxidant was also performed.
After 6 hours of exposure to oxidation, 5 g of the treated solid mixture was added to 30 ml of 0.1M disodium phosphate/0.001 mM EDTA pH 8.0 buffer solution. This solution was then extracted 3 times with chloroform using a separation funnel. The remaining aqueous phase was added to 100 ml volumetric flask and the volume was completed using 0.1M disodium phosphate/0.001 mM EDTA pH 8.5 buffer solution. The GSH present in this solution was quantify by colorimetric method at 405 nm using Elman's reagent, 5,5′-Dithio-bis-(2-nitrobenzoic acid), using L-glutathione 99%, provided by Sigma Aldrich, as standard. The retaining percentage for each solid composition was calculated and expressed as percentage values in Table 3. […]

[2] = GSH retention in liquid composition exposed to hydrogen peroxide oxidation (Ellman colorimetric, 405 nm); settings: 0.1 mmol GSH, pH 8.0 buffer, 1 ml hydrogen peroxide 0.5% w/v
Method: 0.1 mmol of reduced glutathione (Kohjin Co. Ltd) was premixed with 5 g of liquid sorbitol (96%, Roquette Corp) using magnetic stirring for 10 minutes. Then, as described in Table 5, incremental concentrations of food grade antioxidants where added followed by additional 10 minutes of stirring. The mixture was then added to 100 g of 0.1M disodium phosphate/0.001 mM EDTA pH 8.0 buffer solution, then 1 ml of hydrogen peroxide solution 0.5% w/v was added to each test. A control test with no antioxidant was also performed.
After 1 hour of exposure to oxidation, 5 grams of the treated solution was added to 30 ml of 0.1M disodium phosphate/0.001 mM EDTA pH 8.5 buffer solution. This solution was then extracted 3 times with chloroform using a separation funnel. The remaining aqueous phase was added to a 100 ml volumetric flask and the volume was completed using 0.1M disodium phosphate/0.001 mM EDTA pH 8.0 buffer solution. The GSH present in this solution was quantify by colorimetric method at 405 nm using Elman's reagent, 5,5′-Dithio-bis-(2-nitrobenzoic acid), using L-glutathione 99%, provided by Sigma Aldrich, as standard. The retaining percentage for each solid composition was calculated and expressed as percentage values in Table 6. […]

[3] = GSH, cited from earlier work

| SMILES | Retention percentage after 6 hours of oxidation in solid compositions ([1]; 0.001 mmol antioxidant) | Retention percentage after 6 hours of oxidation in solid compositions ([1]; 0.01 mmol antioxidant) | Retention percentage after 6 hours of oxidation in solid compositions ([1]; 10 mmol antioxidant) | Retention percentage after 6 hours of oxidation in solid compositions ([1]; 18.18 mmol antioxidant) | Retention percentage after 1 hour of oxidation in liquid composition ([2]; 0.001 mmol antioxidant) | Retention percentage after 1 hour of oxidation in liquid composition ([2]; 0.01 mmol antioxidant) | Retention percentage after 1 hour of oxidation in liquid composition ([2]; 1 mmol antioxidant) | Retention percentage after 1 hour of oxidation in liquid composition ([2]; 10 mmol antioxidant) | Half life ([3]; pH 6.5, 20° C., 0.1M K2HPO4/KH2PO4 Buffer) | Half life ([3]; pH 7.5, 20° C., 0.1M K2HPO4/KH2PO4 Buffer) | Half life ([3]; pH 8.5, 0° C., 0.1M K2HPO4/KH2PO4 Buffer) | Half life ([3]; pH 8.5, 20° C., 0.1M K2HPO4/KH2PO4 Buffer + 0.1 nM Cu + 2) | Half life ([3]; pH 8.5, 20° C., 0.1M K2HPO4/KH2PO4 Buffer + 1.0 nM EDTA) | Half life ([3]; pH 8.5, 20° C., 0.1M K2HPO4/KH2PO4 Buffer) | Half life ([3]; pH 8.5, 40° C., 0.1M K2HPO4/KH2PO4 Buffer) |
| --- | --- | --- | --- | --- | --- | --- | --- | --- | --- | --- | --- | --- | --- | --- | --- |
| O=C1O[C@H]([C@@H](O)CO)C(O)=C1O [Ascorbic acid, L-Ascorbic acid] | 0.00% | 14.29% | 28.96% | 18.18% | 0.00% | 0.00% | 17.92% | 32.08% |  |  |  |  |  |  |  |
| CC(=O)Oc1c(C)c(C)c2c(c1C)CC[C@@](C)(CCC[C@H](C)CCC[C@H](C)CCCC(C)C)O2 [Vitamin E, DL alpha tocopheryl acetate] | 24.16% | 31.04% | 45.19% | 39.61% | 10.39% | 16.88% | 30.39% | 41.69% |  |  |  |  |  |  |  |
| CC(=O)OC/C=C(C)/C=C/C=C(C)/C=C/C1=C(C)CCCC1(C)C [Vitamin A, Vitamin A acetate] | 28.57% | 33.77% | 51.04% | 46.36% | 14.29% | 21.95% | 33.25% | 49.79% |  |  |  |  |  |  |  |
| CCCCCCCCCCCCCCCC(=O)OC[C@H](O)[C@H]1OC(=O)C(O)=C1O [Ascorbyl palmitate] | 18.18% | 25.97% | 46.10% | 36.88% | 0.00% | 13.38% | 18.83% | 36.36% |  |  |  |  |  |  |  |
| N[C@@H](CCC(=O)N[C@@H](CS)C(=O)NCC(=O)O)C(=O)O [GSH, Reduced glutathione] |  |  |  |  |  |  |  |  | 16 min | 9 min | 8 min | 1.2 min | 70 min | 1.3 min | 0.2 min |
